Measurements as given in PubChem BioAssay AID2060905 (Molecular Pharmacology Branch, DTP, NCI, 2025).

Test system: 282377-053-R-J1-PDC complex spheroid viability
Test: Anticancer human tumor 282377-053-R-J1-PDC patient-derived colon adenocarcinoma cell line growth inhibition [RAS]
Details: for IC50: curve of first compound; for viability, T/C: stronger effect = lower value
Excerpt: RAS pathway inhibitors in Combinations in Complex Spheroids
A high-throughput screen of multi-cell type tumor spheroids was designed to identify active combinations of RAS pathway inhibitors and targeted small molecules. Complex spheroids include a stromal component modeled by human endothelial cells (HUVEC) and fibroblasts modeled by human mesenchymal stem cells (MSCs). The concentration ranges selected for each drug and investigational agent were based upon clinically achievable concentrations if the clinical Cmax of the agent was known.
Compounds. The drugs and investigational agents: abemaciclib (NSC768073), cobimetinib (NSC768068), divarasib (GDC6063, NSC841802), docetaxel (NSC628503), GDC-1971 (RLY-1971, NSC841576), gemcitabine (NSC613327), inavolisib (NSC800729), ipatasertib (NSC767898), KB-0742 (NSC834161), MRTX-1133 (NSC836407), osimertinib (NSC779217), RMC-4630 (NSC839698), RMC-6236 (NSC851965), RMC-6291 (NSC852671), Ro-3306 (NSC812927), sapanisertib (NSC764658), SN-38 (NSC673596), staurosporine (NSC755774), SY5609 (NSC837396), and tovorafenib (DAY101, NSC766906), were obtained from the National Cancer Institute (NCI) Developmental Therapeutics Program Chemical Repository. The FDA-approved anticancer drug set is available from the NCI Developmental Therapeutics Program. […] The stock solutions were prepared in dimethyl sulfoxide (DMSO, Sigma-Aldrich, St. Louis, MO, cat. D2650) at 800-fold the tested concentration and stored at -70 degrees C prior to their use. All drugs and investigational agents were tested over a range starting from a high concentration at or near the clinical Cmax and decreasing in half-log increments. If the clinical Cmax for an agent had not been determined, the highest concentration tested was 10 microM.
Cell Culture. All cells were maintained in an incubator at 37 degrees C and 5% CO2 with 95% humidity. The PDC lines were cultured according to standard operating procedures established by the NCI PDMR. All PDCs were thawed and cultured in Matrigel-coated flasks prepared with a working solution of 1X Ham's F-12 nutrient mix, without supplementation (Invitrogen, Waltham, MA, cat. 11765054), 100 U/mL penicillin-streptomycin (Invitrogen, cat. 15140122), and 2.5% Matrigel (Corning Inc., Corning, NY, cat. 354248) for the first three passages. The 362531-283-R-J2-PDC and 782815-120-R-J1-PDC lines were cultured in 6C/Colon 1B media, which includes advanced DMEM/F-12 (Thermo Fisher Scientific, cat. 12634028), 10 mM HEPES (Thermo Fisher Scientific, cat. 15630080), 1X GlutaMAX supplement (Thermo Fisher Scientific, cat. 35050061), 0.1 mg/mL primocin (InvivoGen, San Diego, CA, cat. ant-pm-2), 10% defined fetal bovine serum, heat inactivated (HyClone Laboratories Inc., Logan, UT, cat. SH30070.03HI), 50% L-WRN conditioned media (ATCC, cat. CRL-3276), 1.25 mM N-Acetyl-L-cysteine (Sigma-Aldrich, cat. A9165), 10 mM nicotinamide (Sigma-Aldrich, cat. N0636), 1X B-27 supplement (Thermo Fisher Scientific, cat. 17504044), 1X N-2 supplement (Thermo Fisher Scientific, cat. 17502048), 50 ng/mL human EGF (Thermo Fisher Scientific, cat. PHG0311), and 10 microM Y-27632 dihydrochloride (Tocris Bioscience, cat. 1254). The K12877-001-R-J1-PDC line was cultured in 6I media, which includes all 6C/Colon 1B media plus 10 ng/mL human FGF-10 (PeproTech, cat. 100-26), 1 ng/mL human FGF-2 (PeproTech, cat. 100-18B), 1 µM prostaglandin E2 (Tocris Bioscience, cat. 2296), […] hydrocortisone (Sigma-Aldrich, cat. H4001), and […] bovine insulin (Sigma-Aldrich, cat. I6634). The K86415-001-R-J1-PDC line was cultured in 6D media, which includes all 6C/Colon 1B media components minus the L-WRN conditioned media. The 485176-168-R4-J1-PDC was cultured in PANC media, which includes all 6C/Colon 1B media plus 100 ng/mL human FGF-10 (PeproTech, cat. 100-26), 500 nM SB-431542 (Selleckchem, cat. S1067), and 10 nM gastrin (Tocris Bioscience, cat. 3006). […]

[1] = second compound 0.0316 µM, first compound 0.0316 µM
[2] = second compound 0.0316 µM, first compound 0.1 µM
[3] = second compound 0.0316 µM, first compound 0.316 µM
[4] = second compound 0.0316 µM, first compound 1 µM
[5] = second compound 0.0316 µM, first compound 3.16 µM
[6] = second compound 0.0316 µM, first compound 10 µM
[7] = second compound 0.1 µM, first compound 0.0316 µM
[8] = second compound 0.1 µM, first compound 0.1 µM
[9] = second compound 0.1 µM, first compound 0.316 µM
[10] = second compound 0.1 µM, first compound 1 µM
[11] = second compound 0.1 µM, first compound 3.16 µM
[12] = second compound 0.1 µM, first compound 10 µM
[13] = second compound 0.316 µM, first compound 0.0316 µM
[14] = second compound 0.316 µM, first compound 0.1 µM
[15] = second compound 0.316 µM, first compound 0.316 µM
[16] = second compound 0.316 µM, first compound 1 µM
[17] = second compound 0.316 µM, first compound 3.16 µM
[18] = second compound 0.316 µM, first compound 10 µM
[19] = second compound 1 µM, first compound 0.0316 µM
[20] = second compound 1 µM, first compound 0.1 µM
[21] = second compound 1 µM, first compound 0.316 µM
[22] = second compound 1 µM, first compound 1 µM
[23] = second compound 1 µM, first compound 3.16 µM
[24] = second compound 1 µM, first compound 10 µM
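Note: spheroids exposed to agents for seven days before readout.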
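Throughout, for viability, T/C: luminescence viability as percent of DMSO vehicle control wells.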

Compound `Cc1nc(N2CCC3(CC2)COC(C)C3N)c(CO)nc1Sc1ccnc(N)c1Cl` (centres undefined) + C=CC(=O)N1CCN(c2nc(OCC3CCCN3C)nc3c(F)c(-c4nc(N)cc(C)c4C(F)(F)F)c(Cl)cc23)C(C)C1 has an IC50 (second compound 0.00316 µM) of over 10 µM, an IC50 (second compound 0.01 µM) of over 10 µM and an IC50 (second compound 0.0316 µM) of over 10 µM. For the same compound, the IC50 (second compound 0.1 µM) was over 10 µM, the IC50 (second compound 0.316 µM) was over 10 µM and the IC50 (second compound 1 µM) was over 10 µM. The viability, T/C (second compound 0.00316 µM, first compound 0.0316 µM) was 111%, the viability, T/C (second compound 0.00316 µM, first compound 0.1 µM) was 101% and the viability, T/C (second compound 0.00316 µM, first compound 0.316 µM) was 118%. For the same compound, the viability, T/C (second compound 0.00316 µM, first compound 1 µM) was 103%, the viability, T/C (second compound 0.00316 µM, first compound 3.16 µM) was 108% and the viability, T/C (second compound 0.00316 µM, first compound 10 µM) was 116%. It also gave a viability, T/C (second compound 0.01 µM, first compound 0.0316 µM) of 100%, a viability, T/C (second compound 0.01 µM, first compound 0.1 µM) of 122% and a viability, T/C (second compound 0.01 µM, first compound 0.316 µM) of 103%. The viability, T/C (second compound 0.01 µM, first compound 1 µM) was 109%, the viability, T/C (second compound 0.01 µM, first compound 3.16 µM) was 92.5% and the viability, T/C (second compound 0.01 µM, first compound 10 µM) was 127%. It also gave a viability, T/C [1] of 93.6%, a viability, T/C [2] of 98.3% and a viability, T/C [3] of 109%. The viability, T/C [4] was 82.8%, the viability, T/C [5] was 76.3% and the viability, T/C [6] was 124%. It also gave a viability, T/C [7] of 89.5%, a viability, T/C [8] of 92.4% and a viability, T/C [9] of 110%. For the same compound, the viability, T/C [10] was 112%, the viability, T/C [11] was 105% and the viability, T/C [12] was 110%. For the same compound, the viability, T/C [13] was 103%, the viability, T/C [14] was 96.6% and the viability, T/C [15] was 85.5%. The viability, T/C [16] was 101%, the viability, T/C [17] was 100% and the viability, T/C [18] was 108%. It also gave a viability, T/C [19] of 106%, a viability, T/C [20] of 113% and a viability, T/C [21] of 118%. For the same compound, the viability, T/C [22] was 86.2%, the viability, T/C [23] was 110% and the viability, T/C [24] was 101%.

In the case of `Cc1nc(N2CCC3(CC2)COC(C)C3N)c(CO)nc1Sc1ccnc(N)c1Cl` (centres undefined) + C#Cc1c(F)ccc2cc(O)cc(-c3ncc4c(N5CC6CCC(C5)N6)nc(OCC56CCCN5CC(F)C6)nc4c3F)c12, the IC50 (second compound 0.0316 µM) is reported as over 10 µM, the IC50 (second compound 0.1 µM) is reported as over 10 µM and the IC50 (second compound 0.316 µM) is reported as over 10 µM. For the same compound, the IC50 (second compound 1 µM) was over 10 µM, the IC50 (second compound 3.16 µM) was over 10 µM and the IC50 (second compound 10 µM) was over 10 µM. It also gave a viability, T/C [1] of 101%, a viability, T/C [2] of 120% and a viability, T/C [3] of 114%. The viability, T/C [4] was 113%, the viability, T/C [5] was 95.9% and the viability, T/C [6] was 87.3%. For the same compound, the viability, T/C [7] was 109%, the viability, T/C [8] was 107% and the viability, T/C [9] was 88.7%. It also gave a viability, T/C [10] of 89.8%, a viability, T/C [11] of 99.5% and a viability, T/C [12] of 89.4%. The viability, T/C [13] was 107%, the viability, T/C [14] was 114% and the viability, T/C [15] was 95%. It also gave a viability, T/C [16] of 100%, a viability, T/C [17] of 114% and a viability, T/C [18] of 101%. The viability, T/C [19] was 116%, the viability, T/C [20] was 110% and the viability, T/C [21] was 110%. For the same compound, the viability, T/C [22] was 86%, the viability, T/C [23] was 98% and the viability, T/C [24] was 85%. The viability, T/C (second compound 3.16 µM, first compound 0.0316 µM) was 99.3%, the viability, T/C (second compound 3.16 µM, first compound 0.1 µM) was 103% and the viability, T/C (second compound 3.16 µM, first compound 0.316 µM) was 89.8%. It also gave a viability, T/C (second compound 3.16 µM, first compound 1 µM) of 111%, a viability, T/C (second compound 3.16 µM, first compound 3.16 µM) of 98.2% and a viability, T/C (second compound 3.16 µM, first compound 10 µM) of 120%. The viability, T/C (second compound 10 µM, first compound 0.0316 µM) was 110%, the viability, T/C (second compound 10 µM, first compound 0.1 µM) was 116% and the viability, T/C (second compound 10 µM, first compound 0.316 µM) was 114%. It also gave a viability, T/C (second compound 10 µM, first compound 1 µM) of 98.5%, a viability, T/C (second compound 10 µM, first compound 3.16 µM) of 85.8% and a viability, T/C (second compound 10 µM, first compound 10 µM) of 131%.
